The results in this text go back to US6395256B1 (priority 1997, dated 2002).

Several values for one entry are separate records, joined by “and”; a condition that tells them apart may be missing. Equal entries are not always repeated. Where two headings read alike, the source gives them in different places.

One assay has as its target T1, active SAH hydrolase (Bos taurus, UniProt Q3MHL4).
T1 construct: SAH hydrolase is purified with classical chromatographical methods to homogeneity from organs e.g. from bovine kidney; from tissue; host or cells: bovine kidney
T1 sequence (Q3MHL4 2-432 limits assumed): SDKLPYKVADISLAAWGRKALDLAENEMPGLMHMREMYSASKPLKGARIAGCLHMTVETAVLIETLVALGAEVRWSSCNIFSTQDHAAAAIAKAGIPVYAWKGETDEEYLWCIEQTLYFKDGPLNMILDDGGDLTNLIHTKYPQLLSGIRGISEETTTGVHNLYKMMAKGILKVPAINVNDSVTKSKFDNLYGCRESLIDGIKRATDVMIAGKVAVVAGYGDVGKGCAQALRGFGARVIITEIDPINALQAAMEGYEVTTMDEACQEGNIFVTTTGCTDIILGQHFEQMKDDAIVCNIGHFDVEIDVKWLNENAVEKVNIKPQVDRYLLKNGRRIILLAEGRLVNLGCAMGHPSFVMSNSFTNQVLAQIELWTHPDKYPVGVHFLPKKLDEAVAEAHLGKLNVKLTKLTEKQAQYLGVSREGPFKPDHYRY
Nature of the assay: 3H-adenosine displacement using active SAH hydrolase. In kind it is binding, bovine. The protocol: SAH hydrolase is purified with classical chromatographical methods to homogeneity from organs e.g. from bovine kidney. Fresh bovine kidney (450 g), obtained from the local slaughterhouse were homogenized in two volumes of 50 mM potassium phosphate buffer pH 7.0, 1 mM DTT, 1 mM EDTA and 10 mM PMSF. The homogenate was centrifuged at 20000×g for 60 min. […] After centrifugation at 20000×g for 30 min the precipitate was disolved in 300-400 ml 20 mM Tris/HCl pH 7.5, 1 mM DTT and 1 mM EDTA and dialyzed against the same buffer.

Another assay concerns the target T2, reduced SAH hydrolase (Bos taurus, UniProt Q3MHL4).
T2 construct: SAH hydrolase is purified with classical chromatographical methods to homogeneity from organs e.g. from bovine kidney; from tissue; host or cells: bovine kidney
T2 sequence (Q3MHL4 2-432 limits assumed): T1 sequence (Q3MHL4 2-432 limits assumed)
Put plainly: 3H-adenosine displacement using reduced SAH hydrolase. In kind it is binding, bovine. On the procedure: 100 μl reduced SAH hydrolase (1 μg/300 μl)
50 μl buffer—20 mM Tris, 40 mM Hepes pH 7.0
Therefore the samples are incubated over night. The assay mixture is separated through nitrocellulose filters with a filtration equipment.

[1] abbreviates: active SAH hydrolase, read-out: EC50 values of 3H-adenosine displacement, active SAH hydrolase.
Setting [2] is: reduced SAH hydrolase, read-out: EC50 values of 3H-adenosine displacement, reduced SAH hydrolase.

Take `N[C@@H](CCS)C(=O)O` [homocysteine]: the EC50 on active SAH hydrolase (setting [1]) and on reduced SAH hydrolase (setting [2]) was 5 µM throughout.
Consider `CCNC(=O)[C@H]1O[C@@H](n2cnc3c(N)ncnc32)[C@H](O)[C@@H]1O` [NECA], for which the results for the concentration for a half-maximal effect (EC50) on active SAH hydrolase (setting [1]) and on reduced SAH hydrolase (setting [2]) were 0.24 µM and greater than 100 µM, respectively.
Consider `Nc1ncnc2c1ncn2[C@H]1C[C@H](O)[C@@H](CO)O1` [2′-deoxyadenosine], for which the EC50 at active SAH hydrolase (setting [1]) came to 0.094 µM; at reduced SAH hydrolase (setting [2]), 0.63 µM.
As for `Cn1c(=O)c2[nH]cnc2n(C)c1=O` [theophylline], the EC50 on active SAH hydrolase and on reduced SAH hydrolase was greater than 100 µM each time.
Turning to `Nc1ncnc2c1ncn2[C@@H]1O[C@H](COP(=O)(O)OP(=O)(O)O)[C@@H](O)[C@H]1O` [ADP], the concentration giving a half-maximal response (EC50) on active SAH hydrolase (setting [1]) is 10 µM; on reduced SAH hydrolase (setting [2]) it was greater than 100 µM.
On the same counts, the results for `Nc1ncnc2c1ncn2[C@@H]1O[C@H](CSCC[C@H](N)C(=O)O)[C@@H](O)[C@H]1O` [SAH, S-adenosylhomocysteine] are 0.246 µM and 0.4 µM.
On the same counts, the results for diadenosine-dialdehyde are 0.18 µM and 10 µM.
On the same counts, the results for `OC[C@H]1O[C@@H](n2cnc3c(O)ncnc32)[C@H](O)[C@@H]1O` [inosine] are 10 µM and 10 µM.
Turning to `Nc1ncnc2nc[nH]c12` [adenine], the figures for the EC50 on active SAH hydrolase (setting [1]) and at reduced SAH hydrolase (setting [2]) were 11.5 µM and greater than 100 µM, respectively.
Take `Nc1ncnc2c1ncn2[C@@H]1O[C@H](COP(=O)(O)O)[C@@H](O)[C@H]1O` [AMP]: the EC50 at active SAH hydrolase (setting [1]) was 10 µM; on reduced SAH hydrolase (setting [2]) it was 100 µM and > 100 µM.

For orientation: EC50 means the midpoint of the concentration-response curve.
